This is an account of results in patent US10792377B2, “Compounds and method for imaging cancer” (Vanderbilt University, priority 2017, dated 2020).

Like-named read-outs stand apart in the source and are kept apart here. A value given as a limit tells only on which side of the number the result lay.

As a reminder, the IC50 is the concentration at which inhibition is half-maximal.

One test addresses T1, murine COX-2 (Mus musculus, UniProt Q05769).
T1 sequence (Q05769 18-604): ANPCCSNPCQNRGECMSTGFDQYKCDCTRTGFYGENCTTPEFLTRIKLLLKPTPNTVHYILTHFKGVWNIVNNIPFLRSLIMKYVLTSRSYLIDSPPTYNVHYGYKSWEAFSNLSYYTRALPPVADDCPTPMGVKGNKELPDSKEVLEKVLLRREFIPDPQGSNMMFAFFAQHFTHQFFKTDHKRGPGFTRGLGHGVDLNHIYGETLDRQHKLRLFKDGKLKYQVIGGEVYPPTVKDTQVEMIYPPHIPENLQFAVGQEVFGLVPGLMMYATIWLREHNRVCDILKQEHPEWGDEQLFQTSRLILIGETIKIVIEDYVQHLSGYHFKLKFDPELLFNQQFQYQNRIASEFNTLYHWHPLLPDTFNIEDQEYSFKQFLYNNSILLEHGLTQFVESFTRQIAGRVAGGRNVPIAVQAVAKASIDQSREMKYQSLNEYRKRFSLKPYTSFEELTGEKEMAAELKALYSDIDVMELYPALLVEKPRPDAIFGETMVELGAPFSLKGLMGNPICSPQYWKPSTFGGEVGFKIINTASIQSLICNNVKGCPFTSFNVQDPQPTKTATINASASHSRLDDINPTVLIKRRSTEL
The test can be described thus: In vitro purified COX-2 inhibition assay (TLC, 14C-arachidonic acid). As to conditions: for COX-2 Selectivity Index (COX-1 IC50/COX-2 IC50): in vitro, purified enzymes. The test is classed as biochemical. Here is the method:
The in vitro cyclooxygenase (ovine COX-1 or human COX-2) inhibitory activities of these probes were tested by a previously described TLC assay (FIGS. 19-21). Briefly, reaction mixtures of 200 μL consisted of hematin-reconstituted protein in 100 mM Tris-HCl, pH 8.0, 500 μM phenol, and [1-^14C]arachidonic acid (50 μM, about 55-57 mCi/mmol, Perkin Elmer).
Inhibition Assay Using Purified COX-1 and COX-2. Inhibition of purified ovine COX-1 or mouse COX-2 by test compounds was assayed by a previously described method, which quantifies the conversion of [1-^14C]arachidonic acid to [1-^14C]prostaglandin products. Reaction mixtures of 200 ∝L consisted of hematin-reconstituted protein in 100 mM Tris-HCl, pH 8.0, 500 μM phenol, and [1-^14C]arachidonic acid (50 μM, ˜55-57 mCi/mmol, Perkin Elmer). For the time-dependent inhibition assay, hematin-reconstituted COX-1 ([…]) was preincubated at 25° C. for 17 min and 37° C. for 3 min with varying inhibitor concentrations in dimethylsulfoxide followed by the addition of [1-^14C]arachidonic acid (50 μM) for 30 s at 37° C. Reactions were terminated by solvent extraction in diethyl ether:methanol:1 M citrate buffer, pH 4.0 (30:4:1). The phases were separated by centrifugation at 2000 g for 2 min, and the organic phase was spotted on a thin-layer chromatography plate (EMD Kieselgel 60, VWR). The plate was developed in ethyl acetate:methylene chloride:glacial AcOH (75:25:1) at 4° C. Radiolabeled products were quantified with a radioactivity scanner (Bioscan, Inc., Washington, D.C.).

Test [1] deals with COX-2 expressing 1483 tumors. The test can be described thus: In vivo imaging of nude mice with 1483 xenografts. The following applies: 1 mg/kg intraperitoneal, nude mice 1483 xenografts. Here is the method:
The specificity of probe 1 was also evaluated by targeting COX-2 in human tumor xenografts. Nude mice bearing 1483 xenograft tumors on the left flank were dosed by intraperitoneal injection with 1 mg/kg fluorocoxib A or compound 1 (FIG. 25). […] However, signal was detected in the COX-2 expressing 1483 tumors of mice dosed with compound 1 starting at 24 h. Maximum fluorescence is detectable in the tumor at 48 h post-injection of probe 1 (FIGS. 27A-C).
Establishment of xenograft tumors in nude mice. Human 1483 HNSCC cells and HCT116 colorectal carcinoma cells were used to grow tumor xenografts in nude mice using a previously described method. Female nude mice, NU-Foxlnu, were purchased at 6-7 weeks of age from Charles River Labs. Human 1483 HNSCC cells were trypsinized and resuspended in cold PBS containing 30% Matrigel such that 1×10^6 cells in 100 μl were injected subcutaneously on the left flank and grew for 2-3 weeks.
In vivo imaging of nude mice with xenografts. Fluorescence imaging of tumors by test compounds was performed by a previously described method. Female nude mice bearing medium-sized 1483 xenograft tumors on the left flank were dosed by intraperitoneal injection with 1 mg/kg compound 1. The animals were lightly anesthetized with 2% isoflurane for fluorescence imaging in the Xenogen IVIS 200 with the DSRed filter at 1.5 cm depth and 1 sec exposure (f2).

For a further test, the target named is T2, hCOX-2 in 1483 cells (Homo sapiens, UniProt P35354).
T2 construct: cells that express high levels of COX-2 were selected; endogenous in cells; host or cells: 1483 human head and neck squamous cell carcinoma (HNSCC) cells
T2 sequence (P35354 18-604): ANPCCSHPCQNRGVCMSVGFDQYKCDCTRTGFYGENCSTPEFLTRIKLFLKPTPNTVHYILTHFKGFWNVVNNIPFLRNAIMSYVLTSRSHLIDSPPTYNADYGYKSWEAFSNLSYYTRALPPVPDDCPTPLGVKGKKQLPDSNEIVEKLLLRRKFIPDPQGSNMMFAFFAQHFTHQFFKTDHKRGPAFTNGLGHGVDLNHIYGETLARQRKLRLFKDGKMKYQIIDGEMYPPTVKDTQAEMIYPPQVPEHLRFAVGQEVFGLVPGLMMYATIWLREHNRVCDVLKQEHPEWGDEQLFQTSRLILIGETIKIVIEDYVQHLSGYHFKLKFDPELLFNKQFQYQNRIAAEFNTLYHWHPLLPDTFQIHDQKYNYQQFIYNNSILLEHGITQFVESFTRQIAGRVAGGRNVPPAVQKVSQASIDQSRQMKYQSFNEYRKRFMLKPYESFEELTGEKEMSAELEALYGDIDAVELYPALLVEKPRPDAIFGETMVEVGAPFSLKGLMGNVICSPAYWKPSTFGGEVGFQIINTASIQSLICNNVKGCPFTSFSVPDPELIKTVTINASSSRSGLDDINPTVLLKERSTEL
The test can be described thus: Intact cell COX-2 inhibition assay in 1483 HNSCC cells. The class given is cell-based. As for the experimental part:
Following the promising results from the purified enzyme assay, the ability of compound 1 to inhibit COX-2 in intact cells was examined using a previously reported method. 1483 human head and neck squamous cell carcinoma (1483 HNSCC) cells that express high levels of COX-2 were selected. […]
Cell Culture and In Vitro Intact Cell Metabolism Assay. Inhibition of COX-2 in intact cells by test compounds was assayed by a previously described method. Human 1483 head and neck squamous cell carcinoma (HNSCC) cells (passage 8-18, mycoplasma negative by a polymerase chain reaction detection method) were cultured in DMEM/F12+10% fetal bovine serum+Antibiotic/Antimycotic in 6-well plates to 60% confluence. […] Reactions were terminated and analyzed by thin layer chromatography as described above.

Regarding `COc1ccc2c(c1)c(CC(=O)NCCCCNC(=O)c1ccc(C3=c4cc5c6c(c4Oc4c3cc3c7c4CCCN7CCC3)CCC[N+]=6CCC5)c(C(=O)NC3CC(C)(C)N([O])C(C)(C)C3)c1)c(C)n2C(=O)c1ccc(Cl)cc1` [Compound 1], the IC50 against murine COX-2 (COX-2 IC50, in vitro purified cox assay) was 0.303 µM; against murine COX-2 (mCOX-2 IC50, purified murine COX-2 (63 nM), inhibitor 20 min, then 1-14C-AA (50 μM) 37° C. 30 s, duplicates) it was 0.3 µM; on hCOX-2 in 1483 cells (COX-2 IC50 in intact cells, 1483 HNSCC cells, compound 30 min 37° C., then [1-14C]-arachidonic acid 10 μM 20 min), 0.28 µM; against hCOX-2 in 1483 cells (hCOX-2 IC50, 1483 cells, 8 μM 14C-AA, 30 min at 37° C.), 0.285 µM. Besides, the “COX-2 Selectivity Index (COX-1 IC50/COX-2 IC50)” value on murine COX-2 is on record as above 83. Moreover, in test [1], the “time post-injection at which tumor signal starts to be detected” value is given as 24 h. Also, the “time post-injection of maximum tumor fluorescence” value in test [1] was found to be 48 h.
As for `COc1ccc2c(c1)c(CC(=O)NCCCCNC(=O)c1ccc(C3=c4cc5c6c(c4Oc4c3cc3c7c4CCCN7CCC3)CCC[N+]=6CCC5)c(C(=O)[O-])c1)c(C)n2C(=O)c1ccc(Cl)cc1` [Fluorocoxib A, reference compound], the “COX-2 Selectivity Index (COX-1 IC50/COX-2 IC50)” value on murine COX-2 is above 35. For the same compound, the “fluorescence in the tumor” value in test [1] (3 h post-injection) is “fluorescence was observed in the tumor”. The IC50 at hCOX-2 in 1483 cells (high throughput screening, intact cancer cells, read-out: COX-2 positive 1483 HNSCC cells IC50) came out at 0.3 µM.
